Test results: PubChem BioAssay AID2060896 (Molecular Pharmacology Branch, DTP, NCI, 2025)

Tested on: 941728-121-R-J1-PDC complex spheroid viability
Experiment: Anticancer human tumor 941728-121-R-J1-PDC patient-derived lung adenocarcinoma cell line growth inhibition [RAS]
Details: for IC50: curve of first compound; for viability, T/C: stronger effect = lower value
Outline: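 Multi-cell-type spheroids: tumor cells plus HUVEC endothelial cells and mesenchymal stem cells. RAS-pathway inhibitors were combined with targeted agents, each dosed in half-log steps down from clinical Cmax, or from 10 microM when Cmax was unknown.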

[1] = second compound 0.00316 µM, first compound 0.0316 µM
[2] = second compound 0.00316 µM, first compound 0.1 µM
[3] = second compound 0.00316 µM, first compound 0.316 µM
[4] = second compound 0.00316 µM, first compound 1 µM
[5] = second compound 0.00316 µM, first compound 3.16 µM
[6] = second compound 0.00316 µM, first compound 10 µM
[7] = second compound 0.01 µM, first compound 0.0316 µM
[8] = second compound 0.01 µM, first compound 0.1 µM
[9] = second compound 0.01 µM, first compound 0.316 µM
[10] = second compound 0.01 µM, first compound 1 µM
[11] = second compound 0.01 µM, first compound 3.16 µM
[12] = second compound 0.01 µM, first compound 10 µM
[13] = second compound 0.0316 µM, first compound 0.0316 µM
[14] = second compound 0.0316 µM, first compound 0.1 µM
[15] = second compound 0.0316 µM, first compound 0.316 µM
[16] = second compound 0.0316 µM, first compound 1 µM
[17] = second compound 0.0316 µM, first compound 3.16 µM
[18] = second compound 0.0316 µM, first compound 10 µM
[19] = second compound 0.1 µM, first compound 0.0316 µM
[20] = second compound 0.1 µM, first compound 0.1 µM
[21] = second compound 0.1 µM, first compound 0.316 µM
[22] = second compound 0.1 µM, first compound 1 µM
[23] = second compound 0.1 µM, first compound 3.16 µM
[24] = second compound 0.1 µM, first compound 10 µM
[25] = second compound 0.316 µM, first compound 0.0316 µM
[26] = second compound 0.316 µM, first compound 0.1 µM
[27] = second compound 0.316 µM, first compound 0.316 µM
[28] = second compound 0.316 µM, first compound 1 µM
[29] = second compound 0.316 µM, first compound 3.16 µM
[30] = second compound 0.316 µM, first compound 10 µM
[31] = second compound 1 µM, first compound 0.0316 µM
[32] = second compound 1 µM, first compound 0.1 µM
[33] = second compound 1 µM, first compound 0.316 µM
[34] = second compound 1 µM, first compound 1 µM
[35] = second compound 1 µM, first compound 3.16 µM
[36] = second compound 1 µM, first compound 10 µM
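Further: spheroids exposed to compounds for 7 days before readout.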
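Wherever viability, T/C is given: 100% = DMSO vehicle control viability.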

Structure (SMILES): CC1(O)CCCC1n1c(=O)c(C(F)F)cc2cnc(NC3CCN(S(C)(=O)=O)CC3)nc21 (stereo unspecified) + C=CC(=O)N1CCN(c2nc(OCC3CCCN3C)nc3c(F)c(-c4nc(N)cc(C)c4C(F)(F)F)c(Cl)cc23)C(C)C1
- IC50 (second compound 0.00316 µM): < 31.6 nM
- IC50 (second compound 0.01 µM): < 31.6 nM
- IC50 (second compound 0.0316 µM): < 31.6 nM
- IC50 (second compound 0.1 µM): < 31.6 nM
- IC50 (second compound 0.316 µM): < 31.6 nM
- IC50 (second compound 1 µM): < 31.6 nM
- viability, T/C [1]: 21.1%
- viability, T/C [2]: 22.3%
- viability, T/C [3]: 21.8%
- viability, T/C [4]: 24.1%
- viability, T/C [5]: 21.9%
- viability, T/C [6]: 23.6%
- viability, T/C [7]: 18.8%
- viability, T/C [8]: 25.2%
- viability, T/C [9]: 19.6%
- viability, T/C [10]: 21.8%
- viability, T/C [11]: 23%
- viability, T/C [12]: 26.5%
- viability, T/C [13]: 18%
- viability, T/C [14]: 17.9%
- viability, T/C [15]: 21.4%
- viability, T/C [16]: 19.1%
- viability, T/C [17]: 20.3%
- viability, T/C [18]: 23.1%
- viability, T/C [19]: 20.1%
- viability, T/C [20]: 18.7%
- viability, T/C [21]: 20.1%
- viability, T/C [22]: 22.8%
- viability, T/C [23]: 21.8%
- viability, T/C [24]: 24.6%
- viability, T/C [25]: 21.1%
- viability, T/C [26]: 19.9%
- viability, T/C [27]: 21.4%
- viability, T/C [28]: 22.1%
- viability, T/C [29]: 21.6%
- viability, T/C [30]: 28.1%
- viability, T/C [31]: 21.1%
- viability, T/C [32]: 19.7%
- viability, T/C [33]: 26.4%
- viability, T/C [34]: 21.9%
- viability, T/C [35]: 24.1%
- viability, T/C [36]: 33.4%

Structure (SMILES): CCC(CC)c1cc(NC2CCC(N)C2)n2nccc2n1 (stereo unspecified) + C=CC(=O)N1CCN(c2nc(OCC3CCCN3C)nc3c(F)c(-c4nc(N)cc(C)c4C(F)(F)F)c(Cl)cc23)C(C)C1
- IC50 (second compound 0.00316 µM): < 31.6 nM
- IC50 (second compound 0.01 µM): < 31.6 nM
- IC50 (second compound 0.0316 µM): < 31.6 nM
- IC50 (second compound 0.1 µM): < 31.6 nM
- IC50 (second compound 0.316 µM): < 31.6 nM
- IC50 (second compound 1 µM): < 31.6 nM
- viability, T/C [1]: 19.6%
- viability, T/C [2]: 18.1%
- viability, T/C [3]: 20.3%
- viability, T/C [4]: 27.2%
- viability, T/C [5]: 13.7%
- viability, T/C [6]: 29.1%
- viability, T/C [7]: 20.1%
- viability, T/C [8]: 19.9%
- viability, T/C [9]: 21.8%
- viability, T/C [10]: 28.4%
- viability, T/C [11]: 13.3%
- viability, T/C [12]: 25%
- viability, T/C [13]: 20%
- viability, T/C [14]: 24.5%
- viability, T/C [15]: 23.5%
- viability, T/C [16]: 27.3%
- viability, T/C [17]: 13.7%
- viability, T/C [18]: 25.9%
- viability, T/C [19]: 19.7%
- viability, T/C [20]: 18.3%
- viability, T/C [21]: 23.4%
- viability, T/C [22]: 27.3%
- viability, T/C [23]: 16.6%
- viability, T/C [24]: 25.9%
- viability, T/C [25]: 19.1%
- viability, T/C [26]: 21.6%
- viability, T/C [27]: 21.5%
- viability, T/C [28]: 26%
- viability, T/C [29]: 14.9%
- viability, T/C [30]: 26.1%
- viability, T/C [31]: 20.6%
- viability, T/C [32]: 21.2%
- viability, T/C [33]: 22.6%
- viability, T/C [34]: 30.2%
- viability, T/C [35]: 16.8%
- viability, T/C [36]: 32.5%

Structure (SMILES): CCN1CCN(Cc2ccc(Nc3ncc(F)c(-c4cc(F)c5nc(C)n(C(C)C)c5c4)n3)nc2)CC1 + C=CC(=O)N1CCN(c2nc(OCC3CCCN3C)nc3c(F)c(-c4nc(N)cc(C)c4C(F)(F)F)c(Cl)cc23)C(C)C1
- IC50 (second compound 0.00316 µM): < 3.16 nM
- IC50 (second compound 0.01 µM): < 3.16 nM
- IC50 (second compound 0.0316 µM): < 3.16 nM
- IC50 (second compound 0.1 µM): < 3.16 nM
- IC50 (second compound 0.316 µM): < 3.16 nM
- IC50 (second compound 1 µM): < 3.16 nM
- viability, T/C (second compound 0.00316 µM, first compound 0.00316 µM): 21.3%
- viability, T/C (second compound 0.00316 µM, first compound 0.01 µM): 18.4%
- viability, T/C [1]: 18.1%
- viability, T/C [2]: 20.8%
- viability, T/C [3]: 15.6%
- viability, T/C [4]: 15.6%
- viability, T/C (second compound 0.01 µM, first compound 0.00316 µM): 20.1%
- viability, T/C (second compound 0.01 µM, first compound 0.01 µM): 18.5%
- viability, T/C [7]: 17.5%
- viability, T/C [8]: 15.9%
- viability, T/C [9]: 13.1%
- viability, T/C [10]: 12.6%
- viability, T/C (second compound 0.0316 µM, first compound 0.00316 µM): 18.4%
- viability, T/C (second compound 0.0316 µM, first compound 0.01 µM): 20.1%
- viability, T/C [13]: 14.6%
- viability, T/C [14]: 13.5%
- viability, T/C [15]: 13.8%
- viability, T/C [16]: 15.1%
- viability, T/C (second compound 0.1 µM, first compound 0.00316 µM): 18.8%
- viability, T/C (second compound 0.1 µM, first compound 0.01 µM): 19%
- viability, T/C [19]: 18.6%
- viability, T/C [20]: 15.8%
- viability, T/C [21]: 14.4%
- viability, T/C [22]: 13.5%
- viability, T/C (second compound 0.316 µM, first compound 0.00316 µM): 18%
- viability, T/C (second compound 0.316 µM, first compound 0.01 µM): 17.4%
- viability, T/C [25]: 18.5%
- viability, T/C [26]: 17.3%
- viability, T/C [27]: 13.2%
- viability, T/C [28]: 13.9%
- viability, T/C (second compound 1 µM, first compound 0.00316 µM): 21.6%
- viability, T/C (second compound 1 µM, first compound 0.01 µM): 18.8%
- viability, T/C [31]: 20.6%
- viability, T/C [32]: 16.5%
- viability, T/C [33]: 14.7%
- viability, T/C [34]: 13.2%
